Source: US12358922B1, “Berberine alpha-ketoglutarate salt, crystalline form, methods of preparation and applications thereof” (priority 2024, dated 2025)

What was measured:
[1] = cited from earlier work
[2] = Solubility measurement of berberine salts in water (Example 3); conditions: room temperature (about 20° C.)

Row | Compound | loss of water ([1]; elevated temperature or low humidity environment) | uptake of water ([1]; in water or a high humidity environment, converts to tetrahydrate form) | solubility in water at room temperature [2] [mg/mL]
1 | COc1ccc2cc3[n+](cc2c1OC)CCc1cc2c(cc1-3)OCO2 [berberine chloride, berberine chloride dihydrate] | more than 8% | about 8% | 
2 | berberine hemi-sulfate |  |  | > 20
